Key:
[1] = tested on: VEGFA (786-O cells); test: VEGFA ELISA Assay (IC50); format: cell-based; settings: 24 hours incubation, VEGFA in culture supernatant by ELISA
Method: 786-O cells in exponential growth phase were seeded in 96-well plate, the cell concentration was 65,000 cells per milliliter of culture medium, 180 ul per well. Compounds were serial diluted to the indicated concentration, and 20 ul compound solutions of different concentrations were added to the corresponding cell wells. The final compound concentrations were as follows (nM): 1.5, 4.6, 13.7, 41.2, 123.5, 370.4, 1111.1, 3333.3, 10000. After 24 hours of incubation, the cell culture supernatant was taken, and the VEGFA concentration was determined using an ELISA kit (purchased from abcam). Finally, the reaction was terminated, and the light absorbance value of each well was measured using a microplate reader at a wavelength of […], and IC50 was calculated by GraphPad Prism. Cell Titer-Glo reagent was used to measure cell viability.

[2] = tested on: HIF2α reporter cells (786-O-HIF2α-Luc cells); test: Luciferase Assay (HIF2α reporter cells); format: cell-based; settings: 18-20 h, Steady-Glo luminescence
Method: Luciferase LUC gene was transfected into 786-O cells (purchased from ATCC) using Lipofectamine 3000 Transfection Reagent (purchased from Invitrogen) to construct HIF2α reporter cells (786-O-HIF2α-Luc cells). Experiments were performed when 786-O-HIF2α-Luc cells were in logarithmic growth phase, culture medium (RPMI MEDIUM 1640, purchased from Invitrogen) was abandoned, the cells were rinsed with PBS three times; trypsin (TrypLE, purchased from invitrogen) was added to digest cells, the digestion was terminated by washing the cells with culture medium, 10% fetal bovine serum, 1% penicillin and streptomycin. The cells were collected by centrifugation, rinsed twice with PBS to remove the phenol red in the medium, and then resuspended the cells to an appropriate concentration, and detected the cell density and viability, and made sure the cell viability is above 90% before it can be used for experiments.
The gradient concentration compound was transferred into 384-well plate, 25 nl/well using Echo 550 (non-contact sonic pipetting system, purchased from Labcyte); the cells were seeded in 384-well plate, 4500 cells/well, with 25 μl of culture medium, to make the final concentrations as follows: 10000, 3333, 1111, 370, 123, 41.1, 13.7, 4.6, 1.5, 0.5 nM. Cells were incubated at 37° C., 5% CO2 for 18-20 h; Steady-Glo™ Luciferase Assay System (purchased from Promega) was added to 384 well-plate, 25 μl/well; the luminescence value was detected with Envision. The % inhibition rate was calculated according to the RLU (Record Luminescence) signal value of each well, and then the IC50 of the corresponding compound was calculated by Graphpad 8.0.

[3] = Homo sapiens, 786-0, 24 h, class symbols

| IC50 ([1]; Homo sapiens, 786-0, 24 h, numeric values) | IC50 ([2]; class symbols) | IC50 [1, 3] | IC50 ([1]; numeric values) | IC50 ([2]; numeric values) | SMILES |
| --- | --- | --- | --- | --- | --- |
| 0.0675 µM | ≤ 0.5 µM | – | – | – | N#Cc1cc(F)cc(-n2cc(C(F)(F)F)c3c2CCC(F)(F)C3O)c1 (centres unmarked) [Example 12, 3-(5,5-difluoro-4-hydroxy-3-(trifluoromethyl)-4,5,6,7-tetrahydro-1H-indol-1-yl)-5-fluorobenzonitrile] |
| – | ≤ 0.5 µM | ≤ 0.5 µM | – | – | OC1c2c(C(F)(F)F)cn(-c3cc(Cl)cc(Cl)c3)c2CCC1(F)F (centres unmarked) [Example 20, 1-(3,5-dichlorophenyl)-5,5-difluoro-3-(trifluoromethyl)-4,5,6,7-tetrahydro-1H-indol-4-ol] |
| – | – | – | 0.0145 µM | 0.0376 µM | N#Cc1cc(-n2cc(C(F)(F)F)c3c2CCC(F)(F)[C@H]3O)ccc1F [Example 95] |
| – | ≤ 0.5 µM | ≤ 0.5 µM | – | – | O[C@H]1c2c(C(F)(F)F)cn(-c3cc(F)cc(F)c3)c2CCC1(F)F [Example 64, (S)-1-(3,5-difluorophenyl)-5,5-difluoro-3-(trifluoromethyl)-4,5,6,7-tetrahydro-1H-indol-4-ol] |

Reference: US20230219890A1, “BICYCLIC COMPOUNDS AND USE THEREOF” (Betta Pharmaceuticals Co.,Ltd, priority 2020, published 2023)
